Reference: publication PMC6696115, “Characterization of Antimicrobial, Antioxidant, and Leishmanicidal Activities of Schiff Base Derivatives of 4-Aminoantipyrine” (Molecules, 2019)
In brackets after ≈: the same amount, converted by molar mass. Like-named read-outs stand apart in the source and are kept apart here. One block for each molecule: values may come before it.

Legend:
[1] = carcinogenicity group; ref IARC; cited from earlier work
RAW 264.7 cells = assay: cell viability, MTT dye assay; assay type: cell-based, murine; conditions: 48 h
Protocol: The specificity and selectivity for the pathogen target is a key point for any potential drug.
The medium was renewed once a week. The viability was determined using MTT (thiazolyl blue tetrazolium bromide) dye assay as described previously for leishmanicidal activity assessment, with some variations. Here, 5 × 10^4 cells/well in a final volume of 100 µL were deposited into a 96-well plate in triplicate. Saponin (2 and 4 mg/mL) and untreated cells were used as the positive control and negative control, respectively. Schiff bases were dissolved in DMSO to obtain different serial concentrations (0.01–2000 µM). […] Cells were pelleted by centrifugation at 4400 rpm for 10 minutes and the media was removed. Next, 100 µL/well of DMSO were added and the absorbance at 570 nm was recorded. A reference wavelength of 630 nm was used for background subtraction.

[2] = system: Enterococcus faecalis ATCC 29212; assay: antimicrobial serial microdilution, E. faecalis; assay type: cell-based; conditions: Enterococcus faecalis, ATCC29212; serial microdilution, 37 °C, 24 h
Protocol: (§1) The in vitro antifungal and antimicrobial activities were determined by testing the Schiff bases against the fungi Saccharomyces cerevisiae, Candida albicans, and Aspergillus niger and the bacteria Staphylococcus aureus, Enterococcus faecalis (Gram-positive), Pseudomonas aeruginosa, and Escherichia coli (Gram-negative).
(§2) The bacterial inoculum was prepared by emulsifying overnight colonies from an agar medium in broth (Mueller–Hinton broth). The suspensions were adjusted to a final organism density of 5 × 10^5 colony former units (cfu)/mL. […] The emulsifying of A. niger cultures was done by pouring 5 mL of saline and 0.1% of polysorbate 80 over the Petri dishes. Then, 100 µL of this suspension were diluted in 5 mL of saline and adjusted to an optical density of 0.1 at 530 nm. For S. cerevisiae, fresh exponential YPAD (yeast extract 1%, peptone 2%, adenine 0.004%, […]) cultures were adjusted to an optical density of 0.5 at 600 nm, and then diluted to the equivalent of 1 × 10^4 cells/mL (10^−3 dilution). Stock solutions of Schiff bases were prepared by dissolving them in DMSO at 10 mg/mL. […] The range of concentrations used was empirically selected for each organisms and the Schiff base. Drug sensitivities were assayed by serial dilutions in 96-well plates as previously described. A row with media and cells but without drug was the positive control. The blank was done by preparing a row with media and drugs, but without cells. Plates were fitted with a tight lid before incubation to prevent desiccation. […] The minimum bactericidal concentration (MBC) and fungicidal concentration (MFC) were determined by spreading 100 µL of culture from each well onto a plate (Mueller–Hinton agar for bacteria, Sabouraud dextrose agar for fungi except S. cerevisiae, and YPAD for S. cerevisiae).

[3] = DPPH radical scavenging assay; assay type: biochemical; conditions: 30 min, room temperature, dark, absorbance 515 nm
Protocol: This was used immediately. The experimental procedure was adapted from the literature. Briefly, in a 96-well plate, 100 µL of solution of DPPH (2, 2-diphenyl-1-picrylhydrazyl) radical (0.2 mM in methanol) was added to 100 µL of methanolic solutions of 3a–j, 4, or 5, prepared as serial two-fold dilutions from the stock solution. Standards were also prepared in the same concentrations.
The percentage of DPPH scavenging was then calculated by using the following formula: % DPPH scavenging=100∗Asample+DPPH−Asample blank/ADPPH−Asolvent

[4] = system: Candida albicans ATCC 10231; assay: antimicrobial serial microdilution, C. albicans; assay type: cell-based; conditions: serial microdilution, 35 °C, 48 h
Protocol: as §1, §2

[5] = system: promastigotes from L. mexicana (M379); assay: leishmanicidal activity, MTT colorimetric assay; assay type: cell-based; conditions: Leishmania mexicana, 48 h exposure, 1% DMSO
Protocol: Leishmanicidal activities of all Schiff bases were evaluated by measuring promastigote mitochondrial activity using MTT colorimetric assay as described previously. […] The medium was renewed every four days. Parasite density was determined in a Neubauer chamber.
Into each well of a 96-well cell culture dish was dispensed 1 × 10^6 parasites. A stock solution of each of the Schiff Base was prepared in DMSO, and serial dilutions were added to the parasite suspension, keeping the solvent concentration at 1%. The final volume was 100 µL for each well and triplicate conditions were carried out. Pentamidine treatment (100 µg/mL) and untreated parasites were used as positive control and negative control, respectively. After exposure to the compounds for 48 h in culture medium, 10 µL of a solution of 5 mg/mL MTT dissolved in PBS was added to each well. […] Later, the plate was centrifuged at 4400 rpm for 10 min and the culture medium was then aspirated. Next, 100 µL of DMSO were added into each well to solubilize the formazan and the plate was shaken for 5 min. The colored formazan salt was measured by recording changes in absorbance at 570 nm using a microplate reader, a BioTek Synergy HT spectrophotometer. A reference wavelength of 630 nm was used to subtract background. Optical densities were analyzed as the quantity of formazan is directly proportional to the number of viable parasites. Data were analyzed with the statistical software GraphPad Prism.

[6] = system: Aspergillus niger ATCC 6275; assay: antimicrobial serial microdilution, A. niger; assay type: cell-based; conditions: serial microdilution, 35 °C, 48 h; for MIC: 96-well plates, max 2% DMSO
Protocol: as §1, §2

[7] = system: S. cerevisiae (backgrounds W303 and BY4741); assay: antimicrobial serial microdilution, S. cerevisiae; assay type: cell-based, Saccharomyces cerevisiae; conditions: 48 h; for IC50 / MIC: Saccharomyces cerevisiae; for MIC: read-out: MIC S. cerevisiae; for NIC S. cerevisiae: noninhibitory concentration
Protocol: as §1, §2

[8] = system: Staphylococcus aureus ATCC 29213; assay: antimicrobial serial microdilution, S. aureus; assay type: cell-based; conditions: Staphylococcus aureus, ATCC29213; serial microdilution, 37 °C, 24 h
Protocol: as §1, §2

[9] = system: Escherichia coli ATCC 25922; assay: antimicrobial serial microdilution, E. coli; assay type: cell-based; conditions: Escherichia coli, ATCC25922; serial microdilution, 37 °C, 24 h
Protocol: as §1, §2

P. aeruginosa ATCC 27853 = assay: antimicrobial serial microdilution, P. aeruginosa; assay type: cell-based; conditions: Pseudomonas aeruginosa, ATCC27853, 37 °C, 24 h
Protocol: as §1, §2

SMILES: Cc1c(N)nc([C@H](CC(N)=O)NC[C@H](N)C(N)=O)nc1C(=O)N[C@H](C(=O)N[C@H](C)[C@@H](O)[C@H](C)C(=O)N[C@H](C(=O)NCCc1nc(-c2nc(C(=O)NCCC[S+](C)C)cs2)cs1)[C@@H](C)O)[C@@H](OC1OC(CO)C(O)C(O)C1OC1OC(CO)C(O)C(OC(N)=O)C1O)c1cnc[nH]1 (stereo partly shown) [Bleomycin]
IARC: group of classification of IARC [1]: 2B

SMILES: O=c1[nH]cc(F)c(=O)[nH]1 [Fluorouracil]
IARC: group of classification of IARC [1]: 3

SMILES: O=P1(N(CCCl)CCCl)NCCCO1 (stereo not shown) [Cyclophosphamide]
IARC: group of classification of IARC [1]: 1

SMILES: Cc1c(N=Cc2cccc([N+](=O)[O-])c2)c(=O)n(-c2ccccc2)n1C [Compound 3g, 4-(3-Nitrobenzylideneamino)-1,5-dimethyl-2-phenyl-1H-pyrazol-3(2H)-one]
% Live Cells (RAW 264.7 cells; RAW 264.7, exposure to 300 µM (limited solubility)): 22.1 ± 0.6%
MIC [2]: > 200 µg/mL
IC50 [3]: > 200 µM
MIC ([4]; Candida albicans, ATCC10231): > 200 µg/mL
IC50 [5]: > 200 µM
MIC ([6]; Aspergillus niger, ATCC6275): > 200 µg/mL
IC50 ([7]; serial microdilution, 35 °C, read-out: IC50 S. cerevisiae (converted)): 105 µg/mL (≈ 312 µM)
MIC ([7]; serial microdilution, 35 °C): 179 ± 59.5 µg/mL (≈ 533 µM)
NIC S. cerevisiae ([7]; serial microdilution, 35 °C): 63.7 ± 8.7 µg/mL
MIC [8]: > 200 µg/mL
MIC [9]: > 200 µg/mL
MIC (P. aeruginosa ATCC 27853): > 200 µg/mL

SMILES: CN[C@@H]1[C@@H](O)[C@@H](O[C@@H]2[C@@H](O)[C@H](O[C@H]3O[C@H]([C@@H](C)O)[C@@H](O)[C@H](O)[C@H]3N)[C@@H](N)C[C@H]2N)OC[C@]1(C)O [GN, geneticin, reference compound]
IC50 ([7]; read-out: IC50 S. cerevisiae): 59.9 µg/mL (≈ 121 µM)
MIC [7]: 93.7 ± 0.9 µg/mL (≈ 189 µM)
NIC S. cerevisiae ([7]; serial microdilution, 35 °C): 44.5 ± 1.7 µg/mL

SMILES: C[C@@H]1[C@H](O)[C@@H](C)/C=C/C=C/C=C/C=C/C=C/C=C/C=C/[C@H](O[C@@H]2O[C@H](C)[C@@H](O)[C@H](N)[C@@H]2O)C[C@@H]2O[C@](O)(C[C@@H](O)C[C@@H](O)[C@H](O)CC[C@@H](O)C[C@@H](O)CC(=O)O[C@H]1C)C[C@H](O)[C@H]2C(=O)O [AP, amphotericin, reference compound]
IC50 [5]: 0.18 ± 0.07 µM

SMILES: COc1ccc(C=Nc2c(C)n(C)n(-c3ccccc3)c2=O)cc1 [Compound 3c, 4-(4-Methoxybenzylideneamino)-1,5-dimethyl-2-phenyl-1H-pyrazol-3(2H)-one]
% Live Cells (RAW 264.7 cells; RAW 264.7, exposure to 400 µM): 26.1 ± 1.9%
MIC [2]: > 200 µg/mL
IC50 [3]: > 200 µM
MIC ([4]; Candida albicans, ATCC10231): > 200 µg/mL
IC50 [5]: > 200 µM
MIC ([6]; Aspergillus niger, ATCC6275): > 200 µg/mL
MIC ([7]; serial microdilution, 35 °C): > 200 µg/mL
MIC [8]: > 200 µg/mL
MIC [9]: > 200 µg/mL
MIC (P. aeruginosa ATCC 27853): > 200 µg/mL

IC50 ([4]; Candida albicans, ATCC10231): 0.9 µg/mL (≈ 2.58 µM)
MIC ([4]; Candida albicans, ATCC10231): 29.7 ± 3.52 µg/mL (≈ 85 µM)
IC50 ([6]; Aspergillus niger, ATCC6275): 0.2 µg/mL (≈ 0.573 µM)
MIC ([6]; Aspergillus niger, ATCC6275): 1.2 ± 0.05 µg/mL (≈ 3.44 µM)
SMILES: C[C@@H](c1ncncc1F)[C@](O)(Cn1cncn1)c1ccc(F)cc1F [VR, voriconazole, reference compound]
NIC C. albicans ([4]; noninhibitory concentration): 0.00 ± 0.00 µg/mL
NIC A. niger ([6]; noninhibitory concentration): 0.05 ± 0.01 µg/mL

SMILES: N=C(N)c1ccc(OCCCCCOc2ccc(C(=N)N)cc2)cc1 [PT, pentamidine, reference compound]
IC50 [5]: 4.5 ± 0.46 µM

SMILES: COc1cc([C@@H]2c3cc4c(cc3[C@@H](O[C@@H]3O[C@@H]5CO[C@@H](C)O[C@H]5[C@H](O)[C@H]3O)[C@H]3COC(=O)[C@H]23)OCO4)cc(OC)c1O [Etoposide]
IARC: group of classification of IARC [1]: 1
